According to patent publication US20060063784A1, “Method of using substituted pyrazolo [1,5-a] pyrimidines” (priority 2004, published 2006):
Like-named read-outs stand apart in the source and are kept apart here.

What was measured:
[1] = tested on: 80S14 (p21-deficient) cells; test: Cytotoxicity assay using isogenic cell lines: IC50 in 80S14 (p21-deficient) cells, SRB; format: cell-based, human
Summary of the method: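 80S14 (p21-deficient) cells seeded at 12,000 cells/well overnight, then exposed 5 days at 37 °C to serial dilutions (5 pM–50 μM or 170 pg/ml–10 μg/ml). TCA-fixed, sulforhodamine B-stained, absorbance at 560 nm; IC50 taken from cytotoxicity curves versus untreated controls.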

LoVo Colon cell line = test: Cytotoxicity assay using LoVo colon cell line, SRB; format: cell-based; conditions: read-out: Inhibition of LoVo
Summary of the method: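 LoVo cells (4000/well, RPMI 1640 with 10% FBS, 37 °C, 7% CO2) seeded overnight, then exposed 4 days to serial dilutions spanning 5 pM-20 μM or 170 pg/ml-10 μg/ml. Survival by SRB staining; IC50 from curves relative to untreated controls.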

[2] = Homo sapiens, 120 h, 80S14 (p21-deficient) cells, 5 days, SRB, class symbols, read-out: IC50 for 80S14
[3] = Homo sapiens, 96 h, Cellular activity in LoVo cell, 4 days incubation, SRB
[4] = Homo sapiens, 120 h, 80S14 p21-deficient cells, 5 days incubation, SRB, read-out: IC50 for 80SI4
[5] = Homo sapiens, 96 h, LoVo colon cells, 4 days incubation, SRB

| Compound | IC50 [1, 2] [µM] | IC50 (LoVo Colon cell line; [3]) [nM] | IC50 [1, 4] [µM] | IC50 (LoVo Colon cell line; [5]) [nM] | further results |
| --- | --- | --- | --- | --- | --- |
| O=C(c1cccs1)c1cnn2c(-c3cccc(-c4nnn(Cc5ccncc5)n4)c3)ccnc12 [Example 510, (7-{3-[2-(Pyridin-4-ylmethyl)-2H-tetraazol-5-yl]phenyl}pyrazolo[1,5-a]pyrimidin-3-yl)(thien-2-yl)methanone] | < 1 | < 100 |  |  |  |
| O=C(NCCc1ccccc1)Nc1cccc(-c2ccnc3c(C(=O)c4cccs4)cnn23)c1 [Example 2, N-(2-phenylethyl)-N′-{3-[3-(thien-2-ylcarbonyl)pyrazolo[1,5-a]pyrimidin-7-yl]phenyl}urea] |  |  | 1 to 10 | 100 to 1000 |  |
| CC(C)CC(=O)Nc1cccc(-c2ccnc3c(-c4ccc(CO)cc4)cnn23)c1 [Example 469, N-(3-{3-[4-(Hydroxymethyl)phenyl]pyrazolo[1,5-a]pyrimidin-7-yl}phenyl)-3-methylbutanamide] | 10 to 50 | 1000 to 20000 |  |  |  |
| N-{3-[3-(thien-2-ylcarbonyl)pyrazolo[1,5-a]pyrimidin-7-ylphenyl}morpholne-4-carboxamide [Example 157] |  |  |  |  | IC50 ([1]; 80S14 p21-deficient cells, 5 days incubation, SRB, read-out: IC50 for 80SI4): 1 to 10 µM; IC50 (LoVo Colon cell line; LoVo colon cells, 4 days incubation, SRB): 100 to 1000 nM |
| O=C(Cc1cccnc1)Nc1cccc(-c2ccnc3c(C(=O)c4cccs4)cnn23)c1 [Example 439, 2-Pyridin-3-yl-N-{3-[3-(thien-2-ylcarbonyl)pyrazolo[1,5-a]pyrimidin-7-yl]phenyl}acetamide] | 1 to 10 | < 100 |  |  |  |
| CC(C)(C)CC(=O)Nc1cccc(-c2ccnc3c(C(=O)c4cccs4)cnn23)c1 [Example 55, 3,3-dimethyl-N-{3-[3-(thien-2-ylcarbonyl)pyrazolo[1,5-a]pyrimidin-7-yl]phenyl}butanamide] |  |  |  |  | IC50 ([1]; Homo sapiens, 80S14, 120 h, read-out: IC50 for 80SI4 (uM)): < 1 µM; IC50 (LoVo Colon cell line; Homo sapiens, LoVo, 96 h): < 100 nM |
| C=C(C)CNc1cccc(-c2ccnc3c(C(=O)c4cccs4)cnn23)c1 [Example 434, (7-{3-[(2-Methylprop-2-enyl)amino]phenyl}pyrazolo[1,5-a]pyrimidin-3-yl)(thien-2-yl)methanone] | 1 to 10 | 100 to 1000 |  |  |  |
| CCCCOC(=O)Nc1cccc(-c2cc(C)nc3c(C(=O)c4cccs4)cnn23)c1 [Example 195, butyl 3-[5-methyl-3-(thien-2-ylcarbonyl)pyrazolo[1,5-a]pyrimidin-7-yl]phenylcarbamate] |  |  | < 1 | < 100 |  |
| O=C(CC1CC2CCC1C2)Nc1cccc(-c2ccnc3c(C(=O)c4cccs4)cnn23)c1 (stereo not shown) [Example 76, 2-bicyclo[2.2.1]hept-2-yl-N-{3-[3-(thien-2-ylcarbonyl)pyrazolo[1,5-a]pyrimidin-7-yl]phenyl}acetamide] |  |  | < 1 | < 100 |  |
| CC(C)CC(=O)Nc1cccc(-c2ccnc3c(-c4ccc5c(c4)OCO5)cnn23)c1 [Example 481, N-{3-[3-(1,3-Benzodioxol-5-yl)pyrazolo[1,5-a]pyrimidin-7-yl]phenyl}-3-methylbutanamide] | 1 to 10 | 100 to 1000 |  |  |  |
| Nc1cccc(-c2cccc(-c3ccnc4c(C(=O)c5cccs5)cnn34)c2)c1 [Example 451, [7-(3′-Amino-1,1′-biphenyl-3-yl)pyrazolo[1,5-a]pyrimidin-3-yl](thien-2-yl)methanone] | < 1 | 100 to 1000 |  |  |  |
| CCOc1cccc(-c2cnn3c(-c4cccc(NC(=O)CC(C)C)c4)ccnc23)c1 [Example 479, N-{3-[3-(3-Ethoxyphenyl)pyrazolo[1,5-a]pyrimidin-7-yl]phenyl}-3-methylbutanamide] | 10 to 50 | 1000 to 20000 |  |  |  |
| CC(C)CC(=O)Nc1cccc(-c2ccnc3c(-c4ccc(-c5ccccc5)cc4)cnn23)c1 [Example 486, N-{3-[3-(1,1′-Biphenyl-4-yl)pyrazolo[1,5-a]pyrimidin-7-yl]phenyl}-3-methylbutanamide] | 10 to 50 | 1000 to 20000 |  |  |  |
| Cc1ccc(-c2ccnc3c(C(=O)c4cccs4)cnn23)cc1NC(=O)OC(C)C [Example 314, Isopropyl 2-methyl-5-[3-(2-thienylcarbonyl)pyrazolo[1,5-a]pyrimidin-7-yl]phenylcarbamate] |  |  |  |  | IC50 ([1]; Homo sapiens, 80S14, 120 h, read-out: IC50 for 80S14 (uM)): < 1 µM; IC50 (LoVo Colon cell line; Homo sapiens, LoVo, 96 h): < 100 nM |
| O=C(Nc1cccc(-c2ccnc3c(C(=O)c4cccs4)cnn23)c1)c1ccccc1Cl [Example 95, 2-chloro-N-{3-[3-(thien-2-ylcarbonyl)pyrazolo[1,5-a]pyrimidin-7-yl]phenyl}benzamide] |  |  | < 1 | < 100 |  |
| O=C(c1cccs1)c1cnn2c(-c3cccc(-c4nnn(CC5CCC5)n4)c3)ccnc12 [Example 505, (7-{3-[2-(Cyclobutylmethyl)-2H-tetraazol-5-yl]phenyl}pyrazolo[1,5-a]pyrimidin-3-yl)(thien-2-yl)methanone] | < 1 | < 100 |  |  |  |
| CC(CCNc1cccc(-c2ccnc3c(C(=O)c4cccs4)cnn23)c1)CC(C)(C)C (stereo not shown) [Example 433, Thien-2-yl(7-{3-[(3,5,5-trimethylhexyl)amino]phenyl}pyrazolo[1,5-a]pyrimidin-3-yl)methanone] | 1 to 10 | 100 to 1000 |  |  |  |
| Cc1cc(-c2cccc(NC(=O)OC(C)C)c2)n2ncc(C(=O)c3cccs3)c2n1 [Example 197, isopropyl 3-[5-methyl-3-(thien-2-ylcarbonyl)pyrazolo[1,5-a]pyrimidin-7-yl]phenylcarbamate] |  |  | < 1 | < 100 |  |
| O=C(Nc1cc(-c2ccnc3c(C(=O)c4cccs4)cnn23)ccc1F)c1ccccc1F [Example 375, 2-fluoro-N-{2-fluoro-5-[3-(thien-2-ylcarbonyl)pyrazolo[1,5-a]pyrimidin-7-yl]phenyl}benzamide] | < 1 | < 100 |  |  |  |
| CCCCNC(=O)Nc1cccc(-c2cc(C)nc3c(C(=O)c4cccs4)cnn23)c1 [Example 206, N-butyl-N′-{3-[5-methyl-3-(thien-2-ylcarbonyl)pyrazolo[1,5-a]pyrimidin-7-yl]phenyl}urea] |  |  | 1 to 10 | 100 to 1000 |  |
| O=C(Nc1cccc(-c2ccnc3c(C(=O)c4cccs4)cnn23)c1)c1ccccn1 [Example 360, N-{3-[3-(Thien-2-ylcarbonyl)pyrazolo[1,5-a]pyrimidin-7-yl]phenyl}pyridine-2-carboxamide] | < 1 | < 100 |  |  |  |
| CC(C)CC(=O)Nc1cccc(-c2ccnc3c(-c4cccc5cccnc45)cnn23)c1 [Example 468, 3-Methyl-N-[3-(3-quinolin-8-ylpyrazolo[1,5-a]pyrimidin-7-yl)phenyl]butanamide] | 1 to 10 | 100 to 1000 |  |  |  |
| O=C(c1cccs1)c1cnn2c(-c3ccc(Cl)nc3)ccnc12 [Example 373, [7-(6-Chloropyridin-3-yl)pyrazolo[1,5-a]pyrimidin-3-yl](thien-2-yl)methanone] | 10 to 50 | 1000 to 20000 |  |  |  |
| O=C(Nc1cccc(-c2ccnc3c(C(=O)c4cccs4)cnn23)c1)OC1CCCC1 [Example 171, cyclopentyl 3-[3-(thien-2-ylcarbonyl)pyrazolo[1,5-a]pyrimidin-7-yl]phenylcarbamate] |  |  | < 1 | < 100 |  |
| N-{4-Chloro-3-[3-(thien-2-ylcarbonyl)pyrazolo[1,5-a]yrimidin-7-yl]phenyl}-N′-isopropylthiourea [Example 340] |  |  |  |  | IC50 ([1]; 80S14 (p21-deficient) cells, 5 days, SRB, class symbols, read-out: IC50 for 80S14): 1 to 10 µM; IC50 (LoVo Colon cell line; Cellular activity in LoVo cell, 4 days incubation, SRB): 100 to 1000 nM |
| CSCCOC(=O)Nc1cccc(-c2ccnc3c(C(=O)c4cccs4)cnn23)c1 [Example 178, 2-(methylthio)ethyl 3-[3-(thien-2-ylcarbonyl)pyrazolo[1,5-a]pyrimidin-7-yl]phenylcarbamate] |  |  | < 1 | < 100 |  |
